The results in this text go back to article PMC3155477, “Cinnamon extract inhibits α-glucosidase activity and dampens postprandial glucose excursion in diabetic rats” (Nutrition & Metabolism, 2011).

≈ marks a conversion by molar mass, not a printed value.

Assay [1] deals with T1, rat-intestinal α-glucosidase (mammalian α-glucosidase).
T1 construct: gene Mgam; crude supernatant of sonicated rat-intestinal acetone powder (Sigma); native enzymes, not purified
As to the kind of experiment: p-nitrophenol release from PNPG. The class given is biochemical. To be noted: PNPG substrate (20 μl of 1 mM added), 50 mM phosphate pH 6.8, 37°C, 5 min pre-incubation, 30 min.

Assay [2] relates to T1, rat-intestinal α-glucosidase (mammalian α-glucosidase). As to the kind of experiment: Lineweaver-Burk plot, p-nitrophenol release. The class given is biochemical. To be noted: no cinnamon extract; 0.5-4 mM PNPG, 37°C, 30 min. The text has this:
Lineweaver-Burk plot, p-nitrophenol release on rat-intestinal α-glucosidase (mammalian α-glucosidase)

As a reminder, the IC50 is the point on the concentration scale where inhibition reaches its midpoint. The low end stands for higher potency, the high end for lower potency. Regarding `C[C@H]1O[C@H](O[C@H]2[C@H](O)[C@@H](O)[C@@H](O[C@H]3[C@H](O)[C@@H](O)C(O)O[C@@H]3CO)O[C@@H]2CO)[C@H](O)[C@@H](O)[C@@H]1N[C@H]1C=C(CO)[C@@H](O)[C@H](O)[C@H]1O` (some centres unmarked) [Acarbose], the 50% inhibitory concentration (IC50) in assay [1] was 34.11 µg/mL (≈ 52.8 µM).
As a reminder, the Km is the substrate concentration at which the rate is half of its maximum. For `O=[N+]([O-])c1ccc(O[C@H]2O[C@H](CO)[C@@H](O)[C@H](O)[C@H]2O)cc1` [p-Nitrophenyl-α-D-glucopyranoside], the Km in assay [2] turned out to be 850 µM.
